Tests used:
Assay type in all cases: functional
Settings in all cases: read-out: GI
[1] = system: ACHN; experiment: Growth inhibition of human ACHN cells at 10 uM incubated for 48 hrs by sulforhodamine B assay relative to control
[2] = system: MDA-MB-468; experiment: Growth inhibition of human MDA-MB-468 cells at 10 uM incubated for 48 hrs by sulforhodamine B assay relative to control
[3] = system: PC-3; experiment: Growth inhibition of human PC-3 cells at 10 uM incubated for 48 hrs by sulforhodamine B assay relative to control
[4] = system: OVCAR-4; experiment: Growth inhibition of human OVCAR-4 cells at 10 uM incubated for 48 hrs by sulforhodamine B assay relative to control
[5] = system: RXF 393; experiment: Growth inhibition of human RXF 393 cells at 10 uM incubated for 48 hrs by sulforhodamine B assay relative to control
[6] = system: MOLT-4; experiment: Growth inhibition of human MOLT-4 cells at 10 uM incubated for 48 hrs by sulforhodamine B assay relative to control
[7] = system: NCI/ADR-RES; experiment: Growth inhibition of human NCI/ADR-RES cells at 10 uM incubated for 48 hrs by sulforhodamine B assay relative to control
[8] = system: Malme-3M; experiment: Growth inhibition of human Malme-3M cells at 10 uM incubated for 48 hrs by sulforhodamine B assay relative to control
[9] = system: NCI-H522; experiment: Growth inhibition of human NCI-H522 cells at 10 uM incubated for 48 hrs by sulforhodamine B assay relative to control
[10] = system: SNB-75; experiment: Growth inhibition of human SNB-75 cells at 10 uM incubated for 48 hrs by sulforhodamine B assay relative to control
[11] = system: Hs-578T; experiment: Growth inhibition of human Hs-578T cells at 10 uM incubated for 48 hrs by sulforhodamine B assay relative to control
[12] = system: LOX IMVI; experiment: Growth inhibition of human LOX IMVI cells at 10 uM incubated for 48 hrs by sulforhodamine B assay relative to control
[13] = system: HCC 2998; experiment: Growth inhibition of human HCC 2998 cells at 10 uM incubated for 48 hrs by sulforhodamine B assay relative to control
[14] = system: A549; experiment: Growth inhibition of human A549/ATCC cells at 10 uM incubated for 48 hrs by sulforhodamine B assay relative to control
[15] = system: NCI-H23; experiment: Growth inhibition of human NCI-H23 cells at 10 uM incubated for 48 hrs by sulforhodamine B assay relative to control
[16] = system: UACC-257; experiment: Growth inhibition of human UACC-257 cells at 10 uM incubated for 48 hrs by sulforhodamine B assay relative to control
[17] = system: OVCAR-3; experiment: Growth inhibition of human OVCAR-3 cells at 10 uM incubated for 48 hrs by sulforhodamine B assay relative to control
[18] = system: MCF7; experiment: Growth inhibition of human MCF7 cells at 10 uM incubated for 48 hrs by sulforhodamine B assay relative to control
[19] = system: HT-29; experiment: Growth inhibition of human HT-29 cells at 10 uM incubated for 48 hrs by sulforhodamine B assay relative to control
[20] = system: NCI-H226; experiment: Growth inhibition of human NCI-H226 cells at 10 uM incubated for 48 hrs by sulforhodamine B assay relative to control
[21] = system: SW-620; experiment: Growth inhibition of human SW-620 cells at 10 uM incubated for 48 hrs by sulforhodamine B assay relative to control
[22] = system: DU-145; experiment: Growth inhibition of human DU-145 cells at 10 uM incubated for 48 hrs by sulforhodamine B assay relative to control
[23] = system: M14; experiment: Growth inhibition of human M14 cells at 10 uM incubated for 48 hrs by sulforhodamine B assay relative to control
[24] = system: SF-268; experiment: Growth inhibition of human SF-268 cells at 10 uM incubated for 48 hrs by sulforhodamine B assay relative to control
[25] = system: U-251; experiment: Growth inhibition of human U-251 cells at 10 uM incubated for 48 hrs by sulforhodamine B assay relative to control
[26] = system: MDA-MB-231; experiment: Growth inhibition of human MDA-MB-231 cells at 10 uM incubated for 48 hrs by sulforhodamine B assay relative to control
[27] = system: HCT-15; experiment: Growth inhibition of human HCT-15 cells at 10 uM incubated for 48 hrs by sulforhodamine B assay relative to control
[28] = system: SF-539; experiment: Growth inhibition of human SF-539 cells at 10 uM incubated for 48 hrs by sulforhodamine B assay relative to control
[29] = system: SF-295; experiment: Growth inhibition of human SF-295 cells at 10 uM incubated for 48 hrs by sulforhodamine B assay relative to control
[30] = system: HCT-116; experiment: Growth inhibition of human HCT-116 cells at 10 uM incubated for 48 hrs by sulforhodamine B assay relative to control
[31] = system: HL-60(TB); experiment: Growth inhibition of human HL-60(TB) cells at 10 uM incubated for 48 hrs by sulforhodamine B assay relative to control
[32] = system: OVCAR-8; experiment: Growth inhibition of human OVCAR-8 cells at 10 uM incubated for 48 hrs by sulforhodamine B assay relative to control
[33] = system: SR; experiment: Growth inhibition of human SR cells at 10 uM incubated for 48 hrs by sulforhodamine B assay relative to control
[34] = system: CAKI-1; experiment: Growth inhibition of human CAKI-1 cells at 10 uM incubated for 48 hrs by sulforhodamine B assay relative to control
[35] = system: KM12; experiment: Growth inhibition of human KM12 cells at 10 uM incubated for 48 hrs by sulforhodamine B assay relative to control
[36] = system: SN12C; experiment: Growth inhibition of human SN12C cells at 10 uM incubated for 48 hrs by sulforhodamine B assay relative to control
[37] = system: UO-31; experiment: Growth inhibition of human UO-31 cells at 10 uM incubated for 48 hrs by sulforhodamine B assay relative to control
[38] = system: COLO 205; experiment: Growth inhibition of human COLO 205 cells at 10 uM incubated for 48 hrs by sulforhodamine B assay relative to control
[39] = system: NCI-H322M; experiment: Growth inhibition of human NCI-H322M cells at 10 uM incubated for 48 hrs by sulforhodamine B assay relative to control
[40] = system: RPMI-8226; experiment: Growth inhibition of human RPMI-8226 cells at 10 uM incubated for 48 hrs by sulforhodamine B assay relative to control
[41] = system: HOP-62; experiment: Growth inhibition of human HOP-62 cells at 10 uM incubated for 48 hrs by sulforhodamine B assay relative to control
[42] = system: HOP-92; experiment: Growth inhibition of human HOP-92 cells at 10 uM incubated for 48 hrs by sulforhodamine B assay relative to control
[43] = system: OVCAR-5; experiment: Growth inhibition of human OVCAR-5 cells at 10 uM incubated for 48 hrs by sulforhodamine B assay relative to control
[44] = system: 786-0; experiment: Growth inhibition of human 786-0 cells at 10 uM incubated for 48 hrs by sulforhodamine B assay relative to control

Cc1cc(NCC(=O)Nc2ccc(-c3nc4ccccc4s3)cc2)no1
inhibition of growth at 10 µM [1]: -10.7%
inhibition of growth at 10 µM [2]: 147%
inhibition of growth at 10 µM [3]: 3.37%
inhibition of growth at 10 µM [4]: -10.7%
inhibition of growth at 10 µM [5]: -4.8%
inhibition of growth at 10 µM [6]: 53.2%
inhibition of growth at 10 µM [7]: -2.68%
inhibition of growth at 10 µM [8]: 10.5%
inhibition of growth at 10 µM [9]: 17.9%
inhibition of growth at 10 µM [10]: -11.5%
inhibition of growth at 10 µM [11]: -1.12%
inhibition of growth at 10 µM [12]: 143%
inhibition of growth at 10 µM [13]: 0.84%
inhibition of growth at 10 µM [14]: 7.66%
inhibition of growth at 10 µM [15]: 17.2%
inhibition of growth at 10 µM [16]: 0.29%
inhibition of growth at 10 µM [17]: 0.7%
inhibition of growth at 10 µM [18]: 64.1%
inhibition of growth at 10 µM [19]: -4.71%
inhibition of growth at 10 µM [20]: 8.98%
inhibition of growth at 10 µM [21]: -13.2%
inhibition of growth at 10 µM [22]: 4.13%
inhibition of growth at 10 µM [23]: -5.87%
inhibition of growth at 10 µM [24]: 12.6%
inhibition of growth at 10 µM [25]: 11.9%
inhibition of growth at 10 µM [26]: -8.49%
inhibition of growth at 10 µM [27]: 9.32%
inhibition of growth at 10 µM [28]: -5.46%
inhibition of growth at 10 µM [29]: 3.62%
inhibition of growth at 10 µM [30]: 9.26%
inhibition of growth at 10 µM [31]: 3.55%
inhibition of growth at 10 µM [32]: 3.61%
inhibition of growth at 10 µM [33]: 30.1%
inhibition of growth at 10 µM [34]: -3.5%
inhibition of growth at 10 µM [35]: -1.64%
inhibition of growth at 10 µM [36]: -2.43%
inhibition of growth at 10 µM [37]: 23%
inhibition of growth at 10 µM [38]: -7.78%
inhibition of growth at 10 µM [39]: -1.5%
inhibition of growth at 10 µM [40]: 1.57%
inhibition of growth at 10 µM [41]: -10.9%
inhibition of growth at 10 µM [42]: -0.34%
inhibition of growth at 10 µM [43]: -19%
inhibition of growth at 10 µM [44]: -1.59%

O=C(CNc1nc2ccccc2s1)Nc1ccc(-c2nc3ccccc3s2)cc1
inhibition of growth at 10 µM [1]: -6.65%
inhibition of growth at 10 µM [2]: 118%
inhibition of growth at 10 µM [3]: 4.99%
inhibition of growth at 10 µM [4]: -1.76%
inhibition of growth at 10 µM [5]: -12.5%
inhibition of growth at 10 µM [6]: 15.8%
inhibition of growth at 10 µM [7]: -1.94%
inhibition of growth at 10 µM [8]: 1.87%
inhibition of growth at 10 µM [9]: 8.76%
inhibition of growth at 10 µM [10]: 1.04%
inhibition of growth at 10 µM [11]: -0.48%
inhibition of growth at 10 µM [12]: 24.2%
inhibition of growth at 10 µM [13]: 7.87%
inhibition of growth at 10 µM [14]: -0.04%
inhibition of growth at 10 µM [15]: 11.2%
inhibition of growth at 10 µM [16]: -1.9%
inhibition of growth at 10 µM [17]: 2.04%
inhibition of growth at 10 µM [18]: 75.2%
inhibition of growth at 10 µM [19]: -8.9%
inhibition of growth at 10 µM [20]: 7.62%
inhibition of growth at 10 µM [21]: -8.73%
inhibition of growth at 10 µM [22]: -5.64%
inhibition of growth at 10 µM [23]: -15.4%
inhibition of growth at 10 µM [24]: 7.92%
inhibition of growth at 10 µM [25]: 10.9%
inhibition of growth at 10 µM [26]: 0.75%
inhibition of growth at 10 µM [27]: -4.63%
inhibition of growth at 10 µM [28]: -7.1%
inhibition of growth at 10 µM [29]: -7.45%
inhibition of growth at 10 µM [30]: 1.08%
inhibition of growth at 10 µM [31]: 0.87%
inhibition of growth at 10 µM [32]: -2.25%
inhibition of growth at 10 µM [33]: 8.72%
inhibition of growth at 10 µM [34]: -0.18%
inhibition of growth at 10 µM [35]: 0.84%
inhibition of growth at 10 µM [36]: -2.68%
inhibition of growth at 10 µM [37]: 19.5%
inhibition of growth at 10 µM [38]: -11.7%
inhibition of growth at 10 µM [39]: 7.75%
inhibition of growth at 10 µM [40]: -7.46%
inhibition of growth at 10 µM [41]: -4.25%
inhibition of growth at 10 µM [42]: 0.18%
inhibition of growth at 10 µM [43]: 1.6%
inhibition of growth at 10 µM [44]: -1.86%

Reference: ChEMBL document CHEMBL4765227, “Hit to lead optimization of a series of N-[4-(1,3-benzothiazol-2-yl)phenyl]acetamides as monoacylglycerol lipase inhibitors with potential anticancer activity” (Eur J Med Chem, 2016)
